Assay results: patent publication US20220089663A1, “PROTEINS AND FLUOROPHORE-CONTAINING COMPOUNDS SELECTIVE FOR NaV1.7” (MEMORIAL SLOAN KETTERING CANCER CENTER, priority 2019, published 2022)

What was measured:
hERG = hERG (Homo sapiens, UniProt Q12809); assay: Hs1a off-target voltage-gated potassium channel, hERG; type: cell-based
Procedure: Hs1a was isolated from the venom of the Chinese bird spider, Haplopelma schmidti. To assess the selectivity of Hs1a for Nav channel subtypes, Hs1a was tested on HEK cells stably transfected with human Nav1.1-Nav1.7 channels using automated patch clamp techniques. […] The IC50 value for hNav1.7 obtained in mammalian cells correlates with the IC50 obtained by two-electrode voltage clamp on hNav1.7 expressed in X. laevis oocytes. The selectivity of Hs1a for off-target voltage-gated calcium and potassium channels were also tested.

mouse sciatic nerves [1] = assay: epifluorescence imaging (IVIS Spectrum) of sciatic nerves and organs 30 min after injection; type: in vivo; conditions: 30 min
Procedure: Animal Model. Female athymic nude mice (4-8 week-old, athymic-Nude (outbred) (Stock #: 088; Envigo, USA) were allowed to acclimatize at the Memorial Sloan Kettering Cancer Center (MSK) vivarium for 1 week with ad libitum food and water prior to the experimental procedure. For imaging experiments, animals were sacrificed 30 min post-tail vein injection of Hs1a-FL, Hs1a/Hs1a-FL, Hsp1a-FL, Hsp1a/Hsp1a-FL, or PBS. All animal experiments were performed in accordance with institutional guidelines and approved by the IACUC of MSK, following NIH guidelines for animal welfare.
Epifluorescence Imaging. Animals were intravenously injected with Hsp1a-FL (7 nmol, 68 μM of Hsp1a-FL in 100 μL of PBS, n=9), or Hs1a-FL (4 nmol, 45 μM of Hs1a-FL in 100 μL of PBS, n=3). To assess the specificity of the Hsp1a-FL or Hs1a-FL accumulation, animals were injected with a combination of Hsp1a and Hsp1a-FL (Hsp1a-FL, 68 μM, 7 nmol and Hsp1a 204 μM, 21 nmol in 100 μL PBS, n=9), Hs1a and Hs1a-FL (Hs1a-FL, 45 μM, 4 nmol and Hs1a, 120 μM, 12 nmol in 100 μL PBS, n=3) or PBS (n=9). Animals were sacrificed 30 min post-injection and epifluorescence images obtained. Epifluorescence images of the right sciatic nerve (RSN) and the left sciatic nerve (LSN) were obtained in situ. Epifluorescence of the biodistribution of the peptides in excited RSN, LSN, muscle, heart, kidney, liver, and brain were acquired with IVIS Spectrum (PerkinElmer) using a predefined GFP filterset (e.g., excitation=465/30 nm, emission=520-580 nm) based on the particular fluorophore employed in the compounds. Autofluorescence was removed through spectral unmixing. Semiquantitative analysis of the Hsp1a-FL or Hs1a-FL signal was conducted by measuring the average radiant efficiency (in units of unit [p/s/cm^2/sr]/[μW/cm^2]) in regions of interest (ROIs) that were placed on all resected organs under white light guidance.

hNav1.3 = target: T1, hNav1.3 (Homo sapiens, UniProt Q9NY46); assay: automated whole-cell patch clamp (QPatch 16X), HEK293-hNav1.3; type: cell-based; conditions: HEK293 cells stably expressing human channel; read-out: IC50 Nav1.3
T1 construct: host or cells: HEK293

hNav1.2 = target: T2, hNav1.2 (Homo sapiens, UniProt Q99250); assay: automated whole-cell patch clamp (QPatch 16X), HEK293-hNav1.2; type: cell-based; conditions: HEK293 cells stably expressing human channel; read-out: IC50 Nav1.2
T2 construct: host or cells: HEK293

hNav1.1 = target: T3, hNav1.1 (Homo sapiens, UniProt P35498); assay: automated whole-cell patch clamp (QPatch 16X), HEK293-hNav1.1; type: cell-based; conditions: HEK293 cells stably expressing human channel; read-out: IC50 Nav1.1
T3 construct: host or cells: HEK293

hNav1.5 = target: T4, hNav1.5 (Homo sapiens, UniProt Q14524); assay: automated whole-cell patch clamp (QPatch 16X), HEK293-hNav1.5; type: cell-based; conditions: HEK293 cells stably expressing human channel; read-out: IC50 Nav1.5
T4 construct: host or cells: HEK293

mouse sciatic nerves [2] = assay: confocal microscopy / histology of sciatic nerve sections after injection; type: in vivo; conditions: 30 min
Procedure: Confocal Microscopy. 5 or 10 μm cryosections of OCT-embedded sciatic nerve tissues from mice intravenously injected with Hsp1a-FL (7 nmol, 68 μM of Hsp1a-FL in 100 μL of PBS), Hsp1a/Hsp1a-FL (Hsp1a-FL, 68 μM, 7 nmol, and Hsp1a 204 μM, 21 nmol in 100 μL PBS), Hs1a-FL (4 nmol, 45 μM of Hs1a-FL in 100 μL of PBS), with the block Hs1a/Hs1a-FL (Hs1a-FL, 45 μM, 4 nmol and Hs1a 120 μM, 12 nmol in 100 μL PBS) or PBS were used to determine the distribution and localization of fluorescently-tagged peptide. Animal organs were incubated with Hoechst 33342 (blue, 20 μM, 1 nmol in 50 μL of PBS) to counterstain nuclei before embedding in Mowiol mounting medium. Fresh tissue samples were counterstained with 33342 (blue, 20 μM, 1 nmol in 50 μL of PBS) up to 90 min post-mortem and placed directly on a microscope slide for imaging.

hNav1.6 = target: T5, hNav1.6 (Homo sapiens, UniProt Q9UQD0); assay: automated whole-cell patch clamp (QPatch 16X), HEK293-hNav1.6; type: cell-based; conditions: HEK293 cells stably expressing human channel; read-out: IC50 Nav1.6
T5 construct: host or cells: HEK293

hNav1.4 = target: T6, hNav1.4 (Homo sapiens, UniProt P35499); assay: automated whole-cell patch clamp (QPatch 16X), HEK293-hNav1.4; type: cell-based; conditions: HEK293 cells stably expressing human channel; read-out: IC50 Nav1.4
T6 construct: host or cells: HEK293

hNav1.7 = target: T7, hNav1.7 (Homo sapiens, UniProt Q15858); assay: automated whole-cell patch clamp (QPatch 16X), HEK293-hNav1.7; type: cell-based; conditions: HEK293 cells stably expressing human channel; read-out: IC50 Nav1.7
T7 construct: host or cells: HEK293

[3] = 4 nmol plus 12 nmol unmodified Hs1a

T4 sequence (Q14524 whole entry): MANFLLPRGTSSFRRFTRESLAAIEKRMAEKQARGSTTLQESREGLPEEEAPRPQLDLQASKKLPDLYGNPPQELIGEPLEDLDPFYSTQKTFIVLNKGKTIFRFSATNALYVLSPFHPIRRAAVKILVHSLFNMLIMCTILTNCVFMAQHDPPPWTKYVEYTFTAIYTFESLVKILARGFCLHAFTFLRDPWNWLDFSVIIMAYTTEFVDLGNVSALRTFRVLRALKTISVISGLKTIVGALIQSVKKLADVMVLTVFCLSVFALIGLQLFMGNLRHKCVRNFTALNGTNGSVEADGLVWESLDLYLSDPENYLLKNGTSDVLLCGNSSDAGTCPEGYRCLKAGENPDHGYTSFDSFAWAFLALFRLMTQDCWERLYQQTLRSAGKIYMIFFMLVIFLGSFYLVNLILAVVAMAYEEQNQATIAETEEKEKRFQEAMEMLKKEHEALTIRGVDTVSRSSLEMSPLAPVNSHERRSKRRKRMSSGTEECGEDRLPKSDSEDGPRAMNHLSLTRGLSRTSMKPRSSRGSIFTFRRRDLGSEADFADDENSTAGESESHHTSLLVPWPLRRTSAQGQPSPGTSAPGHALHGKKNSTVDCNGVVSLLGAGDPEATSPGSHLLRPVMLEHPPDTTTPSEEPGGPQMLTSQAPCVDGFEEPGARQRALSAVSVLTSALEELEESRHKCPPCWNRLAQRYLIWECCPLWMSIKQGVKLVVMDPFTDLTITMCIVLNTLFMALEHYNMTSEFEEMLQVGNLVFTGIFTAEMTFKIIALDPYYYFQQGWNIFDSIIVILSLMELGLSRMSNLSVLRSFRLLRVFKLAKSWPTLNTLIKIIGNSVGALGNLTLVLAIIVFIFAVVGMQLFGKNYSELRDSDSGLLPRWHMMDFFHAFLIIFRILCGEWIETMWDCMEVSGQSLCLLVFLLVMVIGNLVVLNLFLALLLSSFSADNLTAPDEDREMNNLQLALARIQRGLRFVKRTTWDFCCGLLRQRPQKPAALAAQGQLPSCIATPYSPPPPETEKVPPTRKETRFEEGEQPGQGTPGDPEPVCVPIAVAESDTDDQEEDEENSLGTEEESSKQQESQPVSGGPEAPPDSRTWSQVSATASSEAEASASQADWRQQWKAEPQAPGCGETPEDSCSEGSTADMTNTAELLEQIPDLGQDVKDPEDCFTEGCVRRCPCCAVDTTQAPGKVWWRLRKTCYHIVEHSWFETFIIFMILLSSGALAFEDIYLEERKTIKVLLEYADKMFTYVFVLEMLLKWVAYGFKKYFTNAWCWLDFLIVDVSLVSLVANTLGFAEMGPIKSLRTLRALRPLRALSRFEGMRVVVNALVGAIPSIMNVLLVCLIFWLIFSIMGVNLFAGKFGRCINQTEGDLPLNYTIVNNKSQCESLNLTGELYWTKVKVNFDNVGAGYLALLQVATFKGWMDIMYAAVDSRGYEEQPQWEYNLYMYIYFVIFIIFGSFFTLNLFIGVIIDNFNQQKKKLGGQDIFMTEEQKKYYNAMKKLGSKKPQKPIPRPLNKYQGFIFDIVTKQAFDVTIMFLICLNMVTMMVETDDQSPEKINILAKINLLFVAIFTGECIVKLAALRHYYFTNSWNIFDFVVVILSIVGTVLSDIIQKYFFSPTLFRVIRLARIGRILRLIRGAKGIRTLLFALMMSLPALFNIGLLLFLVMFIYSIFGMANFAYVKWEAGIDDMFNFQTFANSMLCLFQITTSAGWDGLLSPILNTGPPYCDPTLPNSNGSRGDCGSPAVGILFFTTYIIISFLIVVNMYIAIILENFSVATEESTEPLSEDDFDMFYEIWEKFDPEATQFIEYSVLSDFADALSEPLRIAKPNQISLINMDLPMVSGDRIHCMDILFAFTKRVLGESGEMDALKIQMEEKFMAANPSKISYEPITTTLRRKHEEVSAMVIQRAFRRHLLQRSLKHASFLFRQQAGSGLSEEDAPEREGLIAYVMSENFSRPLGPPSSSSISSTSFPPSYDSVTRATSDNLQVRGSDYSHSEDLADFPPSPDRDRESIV
T7 sequence (Q15858 whole entry): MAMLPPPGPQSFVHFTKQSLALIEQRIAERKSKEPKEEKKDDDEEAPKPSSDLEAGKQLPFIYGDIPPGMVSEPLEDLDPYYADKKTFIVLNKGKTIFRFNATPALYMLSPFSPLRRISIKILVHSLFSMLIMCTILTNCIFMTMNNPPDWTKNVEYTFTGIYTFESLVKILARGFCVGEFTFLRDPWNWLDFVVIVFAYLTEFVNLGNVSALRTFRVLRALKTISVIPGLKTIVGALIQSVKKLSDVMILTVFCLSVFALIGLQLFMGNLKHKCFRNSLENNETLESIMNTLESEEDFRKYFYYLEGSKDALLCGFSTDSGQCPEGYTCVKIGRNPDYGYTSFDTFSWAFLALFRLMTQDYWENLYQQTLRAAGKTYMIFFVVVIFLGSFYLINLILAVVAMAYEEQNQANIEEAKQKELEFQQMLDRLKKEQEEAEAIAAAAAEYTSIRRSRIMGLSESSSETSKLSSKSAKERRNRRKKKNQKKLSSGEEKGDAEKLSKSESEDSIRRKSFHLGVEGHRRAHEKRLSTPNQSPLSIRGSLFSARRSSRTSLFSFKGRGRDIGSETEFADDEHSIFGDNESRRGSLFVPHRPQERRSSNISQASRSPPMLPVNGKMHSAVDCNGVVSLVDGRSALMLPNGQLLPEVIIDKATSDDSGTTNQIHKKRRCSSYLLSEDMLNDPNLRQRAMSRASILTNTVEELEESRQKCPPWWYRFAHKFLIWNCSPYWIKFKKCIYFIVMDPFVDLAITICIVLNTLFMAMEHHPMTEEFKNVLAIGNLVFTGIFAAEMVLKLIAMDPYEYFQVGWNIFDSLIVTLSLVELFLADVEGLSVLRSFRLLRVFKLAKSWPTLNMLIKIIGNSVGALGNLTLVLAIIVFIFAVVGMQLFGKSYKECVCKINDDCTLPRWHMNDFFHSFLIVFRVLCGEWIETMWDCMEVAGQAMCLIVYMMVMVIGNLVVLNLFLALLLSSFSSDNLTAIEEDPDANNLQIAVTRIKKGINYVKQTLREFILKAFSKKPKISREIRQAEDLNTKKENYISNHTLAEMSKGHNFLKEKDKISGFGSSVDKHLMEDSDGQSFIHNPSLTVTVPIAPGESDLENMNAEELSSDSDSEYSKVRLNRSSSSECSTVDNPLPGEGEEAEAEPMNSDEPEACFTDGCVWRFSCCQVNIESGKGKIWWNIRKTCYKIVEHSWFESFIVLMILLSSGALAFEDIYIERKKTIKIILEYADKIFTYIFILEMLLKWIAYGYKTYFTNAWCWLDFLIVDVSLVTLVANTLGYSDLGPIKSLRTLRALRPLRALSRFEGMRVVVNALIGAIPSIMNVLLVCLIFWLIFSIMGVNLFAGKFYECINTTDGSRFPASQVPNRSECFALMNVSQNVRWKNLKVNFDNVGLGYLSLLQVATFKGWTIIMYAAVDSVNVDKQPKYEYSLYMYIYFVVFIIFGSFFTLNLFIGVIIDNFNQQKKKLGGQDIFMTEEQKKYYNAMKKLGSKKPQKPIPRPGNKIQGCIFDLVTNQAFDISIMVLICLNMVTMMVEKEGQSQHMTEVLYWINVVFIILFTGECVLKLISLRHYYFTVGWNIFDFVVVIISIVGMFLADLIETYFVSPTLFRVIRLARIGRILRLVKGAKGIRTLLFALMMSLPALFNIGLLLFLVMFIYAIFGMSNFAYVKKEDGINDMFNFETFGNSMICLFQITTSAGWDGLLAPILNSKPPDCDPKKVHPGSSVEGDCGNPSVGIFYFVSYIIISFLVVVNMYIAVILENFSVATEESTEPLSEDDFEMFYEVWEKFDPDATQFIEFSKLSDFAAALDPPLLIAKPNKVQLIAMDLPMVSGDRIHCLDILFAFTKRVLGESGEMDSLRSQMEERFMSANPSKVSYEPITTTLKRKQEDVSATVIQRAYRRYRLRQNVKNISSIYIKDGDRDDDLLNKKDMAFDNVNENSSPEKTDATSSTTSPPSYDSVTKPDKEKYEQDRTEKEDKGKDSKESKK
T7 sequence (Q07699 19-218, further chain): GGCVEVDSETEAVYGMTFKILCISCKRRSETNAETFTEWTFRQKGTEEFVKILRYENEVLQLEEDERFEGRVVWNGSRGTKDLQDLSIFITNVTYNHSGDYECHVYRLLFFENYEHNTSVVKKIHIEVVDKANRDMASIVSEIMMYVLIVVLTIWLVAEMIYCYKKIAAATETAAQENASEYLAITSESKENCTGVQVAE

SMILES	IC50 (hERG)	radiant efficiency, resected sciatic nerves (mouse sciatic nerves [1]; 4 nmol i.v. alone)	radiant efficiency, brain (mouse sciatic nerves [1]; 4 nmol i.v.)	radiant efficiency, kidney (mouse sciatic nerves [1]; 4 nmol i.v.)	radiant efficiency, liver (mouse sciatic nerves [1]; 4 nmol i.v.)	radiant efficiency, spleen (mouse sciatic nerves [1]; 4 nmol i.v.)	radiant efficiency, resected sciatic nerves, co-injection (blocking) (mouse sciatic nerves [1]; [3])	IC50 (hNav1.3)	IC50 (hNav1.2)	IC50 (hNav1.1)	IC50 (hNav1.5)	signal in sciatic nerve sections (mouse sciatic nerves [2]; 4 nmol i.v. alone)	signal in sciatic nerve sections, blocked mice (mouse sciatic nerves [2]; [3])	IC50 (hNav1.6)	IC50 (hNav1.4)	IC50 (hNav1.7)
CC(C)C[C@H](NC(=O)[C@H](CCCCN)NC(=O)CNC(=O)[C@H](CCCCN)NC(=O)[C@@H]1CSSC[C@@H]2NC(=O)[C@H](CCCCN)NC(=O)[C@H](CC(=O)O)NC(=O)[C@H](CC(N)=O)NC(=O)[C@H](CCCCN)NC(=O)[C@@H]3CCCN3C(=O)[C@H](CC(N)=O)NC(=O)[C@@H]3CSSC[C@H](NC(=O)[C@H](C(C)C)NC(=O)[C@H](CC(C)C)NC(=O)[C@H](CC(N)=O)NC(=O)[C@H](C)NC(=O)[C@H](CSSC[C@H](NC(=O)[C@H](CC(=O)O)NC(=O)[C@H](CC(N)=O)NC(=O)CN)C(=O)N[C@@H](CC(C)C)C(=O)NCC(=O)N[C@@H](Cc4ccccc4)C(=O)N[C@@H](Cc4c[nH]c5ccccc45)C(=O)N[C@@H](CO)C(=O)N[C@@H](C)C(=O)N3)NC2=O)C(=O)N[C@@H](CO)C(=O)N[C@@H](CO)C(=O)N[C@@H](CCCCN)C(=O)N[C@@H](Cc2c[nH]cn2)C(=O)N[C@@H](CCCCN)C(=O)N[C@@H](Cc2c[nH]c3ccccc23)C(=O)N1)C(=O)O [Hs1a]	> 3000 nM	–	–	–	–	–	–	–	–	–	–	–	–	–	–	–
CC(C)C[C@H](NC(=O)[C@H](CCCCN)NC(=O)CNC(=O)[C@H](CCCCN)NC(=O)[C@@H]1CSSC[C@@H]2NC(=O)[C@H](CCCCN)NC(=O)[C@H](CC(=O)O)NC(=O)[C@H](CC(N)=O)NC(=O)[C@H](CCCCNC(=O)CCCCC[N+]3=C(/C=C/C4=CC(=C/C=C5/N(C)c6ccc7ccccc7c6C5(C)C)/CCC4)C(C)(C)c4c3ccc3ccccc43)NC(=O)[C@@H]3CCCN3C(=O)[C@H](CC(N)=O)NC(=O)[C@@H]3CSSC[C@H](NC(=O)[C@H](C(C)C)NC(=O)[C@H](CC(C)C)NC(=O)[C@H](CC(N)=O)NC(=O)[C@H](C)NC(=O)[C@H](CSSC[C@H](NC(=O)[C@H](CC(=O)O)NC(=O)[C@H](CC(N)=O)NC(=O)CN)C(=O)N[C@@H](CC(C)C)C(=O)NCC(=O)N[C@@H](Cc4ccccc4)C(=O)N[C@@H](Cc4c[nH]c5ccccc45)C(=O)N[C@@H](CO)C(=O)N[C@@H](C)C(=O)N3)NC2=O)C(=O)N[C@@H](CO)C(=O)N[C@@H](CO)C(=O)N[C@@H](CCCCN)C(=O)N[C@@H](Cc2c[nH]cn2)C(=O)N[C@@H](CCCCN)C(=O)N[C@@H](Cc2c[nH]c3ccccc23)C(=O)N1)C(=O)O [Hs1a-FL]	–	1.6±0.3×10^5 [p/s/cm^2/sr]/[μW/cm^2]	0.2±0.1×10^7 [p/s/cm^2/sr]/[μW/cm^2]	1.4±1.1×10^7 [p/s/cm^2/sr]/[μW/cm^2]	3.0±2.0×10^7 [p/s/cm^2/sr]/[μW/cm^2]	0.8±0.5×10^7 [p/s/cm^2/sr]/[μW/cm^2]	0.09±0.03×10^5 [p/s/cm^2/sr]/[μW/cm^2]	107 nM	81.2 nM	19.4 nM	> 3000 nM	confirmed the presence of Hs1a-FL signal	No signal was detected	19.2 nM	> 3000 nM	26.9 nM
